Measurements reported in patent publication US20060058336A1, “Pharmaceutical composition for treatment of drug dependence” (priority 2003, published 2006).

Columns and labels:
wild-type mice [1] = assay: Cocaine-induced hyperlocomotion on day 6 after establishment of cocaine dependence, wild-type mice; type: in vivo; details: cocaine 10 mg/kg i.p. daily 5 days, day 6 pretreatment 1 mg/kg 10 min before cocaine, FIG. 5c, P<0.001, P<0.01
Experimental: Wild-type mice (9-13 weeks) received intraperitoneal injection of cocaine (10 mg/kg) once a day for 5 days. […] On day 6, the mice were pretreated with saline, donepezil (1 mg/kg) or galanthamine (1 mg/kg) 10 min before intraperitoneal injection of cocaine (10 mg/kg), and the cocaine-induced locomotor activity was measured for 10 min (n=5-12 for each group).

IT-tg and IT-wt mice [2] = assay: Morphine CPP test in cholinergic cell-eliminated (IT-tg) and IT-wt mice with donepezil pretreatment; type: in vivo; details: donepezil hydrochloride 1 mg/kg i.p. 20 min before morphine 5 mg/kg, 3-day conditioning
Experimental: (§1) Cholinergic cell-eliminated (IT-tg) mice wherein ACh-expressing cells (cholinergic cells) in the NAc were ablated were prepared and used in the experiment for examining the effects of reduction of ACh level in the NAc on sensitivity to an addictive drug (a drug dependence-producing drug). Selective ablation of cholinergic cells in the NAc was conducted through immunotoxin-mediated cell targeting (IMCT) techniques using transgenic mice and anti-Tac(Fv)-PE38 as the immunotoxin (Kobayashi et al., Proc. Natl Acad. Sci. USA 92, 1132-1136 (1995); Watanabe et al., Cell 95, 17-27 (1998)). […] Anti-Tac(Fv)-PE38 is an immunotoxin that can specifically recognize cells expressing hIL-2Rα and inhibits their protein synthesis, thereby eliminating the cells expressing hIL-2Rα. The present inventors have developed a method for selectively ablating cholinergic cells in the NAc; the method comprising administering anti-Tac(Fv)-PE38 locally to a transgenic mouse whose NAc specifically expressed hIL-2Rα in cholinergic cells. […] Both wild-type and transgenic mice were C57B6/J strain. […] The above-mentioned IT-treated transgenic mouse was used as cholinergic cell-eliminated mouse (IT-tg) in the Experiments and Examples hereinafter described.

wild-type mice [3] = assay: Relapse of cocaine-induced hyperlocomotion after drug deprivation, wild-type mice; type: in vivo; details: cocaine 10 mg/kg 6 days, withheld days 7-11, day 12 donepezil 1 mg/kg 10 min before cocaine, P<0.001 vs saline, FIG. 5e
Experimental: Drug-induced sensitization caused by continuous daily cocaine administration persists for a long term even after a prolonged period of abstinence from the drug. This is taken seriously as a mechanism of relapse, whereby a drug dependent individual resumes taking a drug after a long-term interruption. The effects of donepezil in blocking relapse of cocaine dependence were examined as follows: Wild-type mice (9-13 weeks) received intraperitoneal injection of cocaine (10 mg/kg) once a day for 6 days and cocaine dependence was established in mice. For 5 days, from day 7 to day 11, mice were withheld from cocaine and were kept in their home cage. On day 12, the mice were pretreated with saline or donepezil (1 mg/kg) 10 min before intraperitoneal injection with cocaine (10 mg/kg). The locomotor activity was then measured for 10 min (n=6 for each group).

wild-type mice [4] = assay: Cocaine CPP test in wild-type mice; details: donepezil hydrochloride 1 or 3 mg/kg i.p. (both doses) 20 min before drug, cocaine 10 mg/kg daily, 3 days, P<0.01, FIG. 5a
wild-type mice [5] = assay: Morphine conditioned place preference (CPP) test in wild-type mice; details: donepezil hydrochloride 1 or 3 mg/kg i.p. (both doses) 20 min before morphine 5 mg/kg, 3-day conditioning, P<0.01, FIG. 4a
IT-wt and IT-tg mice = assay: Cocaine-induced hyperlocomotion on day 6 in IT-wt and IT-tg mice; type: in vivo; details: cocaine 10 mg/kg daily 5 days, day 6 donepezil 1 mg/kg 10 min before cocaine
Experimental: Cholinergic cell-eliminated (IT-tg) mice wherein ACh-expressing cells (cholinergic cells) in the NAc were ablated were prepared and used in the experiment for examining the effects of reduction of ACh level in the NAc on sensitivity to an addictive drug (a drug dependence-producing drug). Selective ablation of cholinergic cells in the NAc was conducted through immunotoxin-mediated cell targeting (IMCT) techniques using transgenic mice and anti-Tac(Fv)-PE38 as the immunotoxin (Kobayashi et al., Proc. Natl Acad. Sci. USA 92, 1132-1136 (1995); Watanabe et al., Cell 95, 17-27 (1998)). Anti-Tac (Fv)-PE38 is a recombinant fusion protein composed of a variable region of a monoclonal antibody against human interleukin 2 receptor α subunit (hIL-2Rα) and Pseudomonas exotoxin, and can be purified from E. coli BL21 as described by Chaudhary et al. (Nature 339, 394-397 (1989)). Anti-Tac(Fv)-PE38 is an immunotoxin that can specifically recognize cells expressing hIL-2Rα and inhibits their protein synthesis, thereby eliminating the cells expressing hIL-2Rα. […]
The present investigation was conducted to examine whether ACh derived from the NAc cholinergic cells is responsible for cocaine-induced hyperlocomotion. […] Their cocaine-induced locomotion was then measured for 10 min (n=7-11 for each group). […]

wild-type mice [6] = assay: Development of cocaine-induced locomotor sensitization in wild-type mice; details: donepezil 1 mg/kg 10 min before daily cocaine 10 mg/kg i.p., 10 min measurement, ANOVA P<0.001, FIG. 5b
IT-tg and IT-wt mice [7] = assay: CPP test of sensitivity to addictive drugs in IT-tg and IT-wt mice
IT-tg and IT-wt mice [8] = assay: Conditioned place aversion (CPA) test, naloxone-precipitated morphine withdrawal; details: naloxone 1 mg/kg after morphine 50 mg/kg
IT-tg and IT-wt mice [9] = assay: Morphine withdrawal symptom (jumping) induced by naloxone; details: naloxone 1 mg/kg 1 hr after morphine 50 mg/kg
IT-tg mice = assay: Cocaine CPP test in IT-tg mice with ACh receptor agonist pretreatment; type: in vivo; details: methyl atropine 2 mg/kg pretreatment, pilocarpine 100 mg/kg 20 min before cocaine 5 mg/kg, 3 days, P<0.01 vs saline, FIG. 6
Experimental: as §1

## COc1cc2c(cc1OC)C(=O)C(CC1CCN(Cc3ccccc3)CC1)C2 (stereo not drawn) [donepezil]
wild-type mice [1]
  cocaine-induced hyperlocomotion on day 6: significantly effective in inhibiting
IT-tg and IT-wt mice [2]; IT-tg mice, FIG. 4b
  morphine-induced CPP in IT-tg mice: failed to suppress
IT-tg and IT-wt mice [2]; IT-wt mice, P<0.01, FIG. 4b
  morphine-induced CPP in IT-wt mice: significantly reduced
wild-type mice [3]
  abnormal hyperlocomotion after cocaine re-administration on day 12 (relapse): no abnormal hyperlocomotion was observed
wild-type mice [4]
  degree of cocaine-induced CPP: significantly reduced
wild-type mice [5]
  development of morphine-induced CPP: significantly reduced
IT-wt and IT-tg mice; IT-tg mice, FIG. 5d
  effects on cocaine-induced locomotion in IT-tg group: not observed
IT-wt and IT-tg mice; IT-wt mice, P<0.05, FIG. 5d
  cocaine-induced abnormal behaviors (locomotor sensitization) in IT-wt group: significantly decreased
wild-type mice [6]
  increase in locomotor activity by repeated cocaine administration (locomotor sensitization): no such increase was observed

## COc1ccc2c3c1O[C@H]1C[C@@H](O)C=C[C@@]31CCN(C)C2 [galanthamine]
wild-type mice [1]
  cocaine-induced hyperlocomotion on day 6: significantly effective in inhibiting

## CN1CC[C@]23c4c5ccc(O)c4O[C@H]2[C@@H](O)C=C[C@H]3[C@H]1C5 [morphine]
IT-tg and IT-wt mice [7]; IT-tg mice, 3-day conditioning with 1 mg/kg morphine i.p., P<0.05, FIG. 2a
  place preference for morphine-paired chamber, IT-tg mice, 1 mg/kg: significant preference
IT-tg and IT-wt mice [7]; IT-wt mice, 3-day conditioning with 1 mg/kg morphine i.p., FIG. 2a
  place preference for morphine-paired chamber, IT-wt mice, 1 mg/kg: no such preference was observed
IT-tg and IT-wt mice [7]; both IT-tg and IT-wt mice, conditioning with 5 mg/kg morphine
  place preference for morphine-paired chamber, 5 mg/kg: exhibited place preference

## C=CCN1CC[C@]23c4c5ccc(O)c4O[C@H]2C(=O)CC[C@@]3(O)[C@H]1C5 [naloxone]
IT-tg and IT-wt mice [8]; both IT-tg and IT-wt morphine-dependent mice, FIG. 2b
  place aversion to naloxone-paired chamber: exhibited place aversion
IT-tg and IT-wt mice [8]; morphine-dependent mice, P<0.05, FIG. 2b
  place aversion to naloxone-paired chamber, IT-tg vs IT-wt mice: stronger place aversion
IT-tg and IT-wt mice [9]; IT-tg and IT-wt morphine-dependent mice, counted over 20 min
  jumping (physical morphine withdrawal symptom): observed in both
IT-tg and IT-wt mice [9]; morphine-dependent mice, 20 min, P<0.05, FIG. 3
  number of jumps, IT-tg vs IT-wt mice: significantly more number of jumps

## CC[C@@H]1C(=O)OC[C@@H]1Cc1cncn1C [pilocarpine]
IT-tg mice
  development of cocaine-induced CPP in IT-tg mice: significantly reduced
